# Reference: patent publication US20210002371A1, “COMBINATION OF AN ANTI-PD-L1 ANTIBODY AND IDO1 INHIBITOR FOR THE TREATMENT OF CANCER” (Merck Patent GmbH, priority 2017, published 2021)
# Assays:
# [1] = test system: CT26-KSA colon carcinoma cells; experiment: Anti-tumor efficacy in CT26-KSA tumor-bearing mice (s.c. colon carcinoma model); assay type: in vivo, BALB/c female mice; details: M4112 200 mg/kg p.o. 2x/day for 3 weeks, avelumab 400 μg i.v. Days 0, 3, 6
# Experimental: (§1) Tumor growth data are presented in graphical form as the mean and standard error of the mean (SEM) of tumor volumes every 3 or 4 days. Two-way repeated measures analysis of variance (RM ANOVA) with Tukey's post-test was performed to assess differences in tumor volumes between treatment groups. Treatment/Control (T/C) values were calculated as the mean tumor volume of the treatment group divided by the mean tumor volume of the control group on the last day of observation and are expressed as percentages. In all cases, p<0.05 was considered statistically significant. Kaplan Meier survival curves were analyzed by Log-Rank (Mantel-Cox) test. A Bonferroni-corrected significance threshold of p<0.0125 was used to account for multiple comparisons.
# The combination treatment of avelumab and M4112 in a CT26-KSA murine model was undertaken to evaluate the anti-tumor activity in BALB/c mice. […] The tumor volume, mice survival and mouse body weight were measured. […]
# CT26-KSA cells were cultured in RPMI-1640 medium containing 10% FBS, 2 mM L-glutamine, 0.1 mM non-essential amino acids (NEAA), 1 mM Na Pyruvate, 1% MEM vitamin solution and 1% G418 antibiotic (1 mg/mL). […] Cells were harvested by trypsinization with TrypLE Express and viable cell counts were determined using a Countess or hematocrit chamber cell counter and trypan blue exclusion staining. […]
# [2] = test system: MC38 colon carcinoma cells; experiment: Anti-tumor efficacy in MC38 tumor-bearing mice (s.c. colon carcinoma model); assay type: in vivo, C57BL/6 female mice; details: Day 24; M4112 200 mg/kg p.o. 2x/day for 4 weeks; avelumab 400 μg i.v. Days 0, 2, 4; control = M4112 vehicle + isotype control
# Experimental: as §1
# The combination treatment of avelumab and M4112 in the MC38 murine model was undertaken to evaluate the anti-tumor activity in C57BL/6 mice. […] The tumor volume, mice survival and mouse body weight were measured.
# MC38 cells were cultured in DMEM containing 4.5 g/L D-glucose, 2 mM glutamine, and 110 mg/L sodium pyruvate and supplemented with 10% FBS, 0.1 mM MEM NEAA, and penicillin/streptomycin. […] Cells were harvested by trypsinization with TrypLE Express and viable cell counts were determined using a Countess or hematocrit chamber cell counter and trypan blue exclusion staining. […]
# [3] = test system: IDO1 expressing mDCs co-cultured with PBMCs; experiment: One-way Mixed Lymphocyte Reaction (MLR) assay, IFNγ production by ELISA; assay type: cell-based, human; details: M4112 5 μM, avelumab 0.61-10000 ng/mL
# Experimental: High levels of IDO1 in mDCs correlate with suppressed avelumab activity (IFNγ production) in the one-way MLR assay, which is reversed in an avelumab dose-dependent manner when M4112 is used in combination. Prior to the one-way MLR assay, imDCs from donor 17988 were treated with 1 μg/mL LPS for two days to obtain mDCs. Cells were stained with either an isotype control Phycoerythrin (PE) antibody or an anti-IDO1-PE antibody. (A-B) Stained cells were analyzed via FACS. Purple (solid curve) represents isotype control stained cells and green (transparent curve) represents IDO1-PE stained cells. […] On (C) Day 4 (Experiment A) or (D) Day 3 (Experiment B) of the MLR assay, IFNγ levels ([…]) were measured in the co-culture supernatant via IFNγ ELISA. […]
# This example describes the in vitro characterization of M4112, alone and in combination with the anti-tumor compound avelumab, using one-way Mixed Lymphocyte Reaction (MLR) assays. […] Using this functional assay, the immune IDO1 expressing cells (mDCs) were cultured with PBMCs in the presence or absence of the IDO1/TDO2 inhibitor, M4112, and the immune response was evaluated by looking at IFNγ production. […]
# A one-way MLR assay was performed with a 2.3:1 ratio of PBMC to mDC (stimulated with LPS) under two different conditions. […] Both experiments measured the change in IFNγ concentration using the optical density of a standard curve from an ELISA.
structure (smiles),measurement,setting,value
"NS(=O)(=O)[C@H]1CC[C@](F)(CC[C@H]2c3ccccc3-c3cncn32)CC1 [Compound M4112, c-4-fluoro-t-4-[(S)-2-(5H-imidazo[5,1-a]isoindol-5-yl)-ethyl]-cyclohexane-r-1-sulfonic acid amide]",median survival time,[1]; CT26-KSA tumor-bearing mice,30.5 days
same,T/C (mean tumor volume of treatment group / mean tumor volume of control group),"[1]; Day 21, control = M4112 vehicle + isotype control",78%
same,T/C (mean tumor volume of treatment group / mean tumor volume of control group),[2],72%
same,avelumab activity (IFNγ production) in MLR,"[3]; Experiment A: IDO1-high mDCs, Day 4",the activity of avelumab was restored to normal levels
same,avelumab activity (IFNγ production) in MLR,"[3]; Experiment B: IDO1-low mDCs, Day 3",no change in avelumab activity
